Source: patent publication US11324725B2, “Compositions and methods for the inhibition of pruritus” (The United States of America, as represented by the …, priority 2017, dated 2022)
“Also recorded” adds a separate entry of the source.

Biological target: T1, hNpr2 (Homo sapiens, UniProt P20594)
T1 sequence (P20594 23-1047): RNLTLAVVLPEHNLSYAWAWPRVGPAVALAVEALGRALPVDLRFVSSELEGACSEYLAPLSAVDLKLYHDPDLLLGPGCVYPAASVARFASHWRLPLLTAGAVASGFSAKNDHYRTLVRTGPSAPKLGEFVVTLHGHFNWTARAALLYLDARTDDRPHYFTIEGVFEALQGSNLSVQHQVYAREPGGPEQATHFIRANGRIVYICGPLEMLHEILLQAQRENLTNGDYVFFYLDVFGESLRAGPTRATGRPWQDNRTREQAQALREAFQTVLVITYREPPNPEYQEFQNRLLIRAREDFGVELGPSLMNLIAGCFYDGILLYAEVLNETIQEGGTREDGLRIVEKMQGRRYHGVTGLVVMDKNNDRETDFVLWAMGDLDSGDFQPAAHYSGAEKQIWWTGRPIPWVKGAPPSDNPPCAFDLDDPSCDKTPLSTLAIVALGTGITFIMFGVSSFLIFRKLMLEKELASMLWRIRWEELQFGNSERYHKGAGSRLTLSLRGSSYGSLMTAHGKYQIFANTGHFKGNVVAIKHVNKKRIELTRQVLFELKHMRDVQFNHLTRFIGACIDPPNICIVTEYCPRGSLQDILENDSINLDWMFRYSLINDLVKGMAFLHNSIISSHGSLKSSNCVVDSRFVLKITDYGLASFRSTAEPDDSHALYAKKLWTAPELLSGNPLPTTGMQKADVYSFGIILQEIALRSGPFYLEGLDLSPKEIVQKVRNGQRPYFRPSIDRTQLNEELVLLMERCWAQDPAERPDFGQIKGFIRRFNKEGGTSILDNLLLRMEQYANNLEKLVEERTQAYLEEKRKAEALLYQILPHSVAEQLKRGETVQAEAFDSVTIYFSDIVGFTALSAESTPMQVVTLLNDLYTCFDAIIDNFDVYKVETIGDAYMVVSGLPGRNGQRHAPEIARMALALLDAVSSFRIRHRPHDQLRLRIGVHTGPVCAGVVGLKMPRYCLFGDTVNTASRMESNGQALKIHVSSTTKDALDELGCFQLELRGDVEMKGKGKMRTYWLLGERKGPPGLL
Assay: Counter-screen, Nppc-stimulated HEK-hNpr2-cGMP-sensor cells
Assay type: cell-based
Details: for IC50 / Imax: 1 nM Nppc-stimulated; for Imax: read-out: Imax, HEK-hNpr2-cGMP-sensor cells, −100% = no agonist; for Inhibition of Nppc-induced hNpr2 activity (in words): HEK-hNpr2-cGMP-sensor cells
Description: In order to identify small molecular compounds that inhibit the Npr1 receptor a high-throughput assay to probe inhibition of the receptor guanylate cyclase Npr1 was developed. The assay was designed taking advantage of Promega's GloSensor™ technology (Promega, Madison, Wis.). This technology involves the expression of a cyclic guanosine monophosphate (cGMP) biosensor, comprised of a firefly luciferase variant that was coupled to the cGMP binding domain of human phosphodiesterase 5A, and loading of cells with a cell-permeable luciferase substrate to monitor cGMP production by Npr1 in real time in live cells. Briefly, human embryonic kidney 293 cells stably expressing the human Npr1 and the pGloSensor™-40F cGMP vector (“pGloSensor™-40F”) were generated. Stimulating these cells with the Npr1 agonists human NppA or NppB, luciferase-induced light production could be detected in a dose-dependent manner. HEK293 cells stably expressing human Npr2 and pGS-40F and cells only expressing pGS-40F were also generated to conduct secondary counter screens. In these cells, NppC or sodium nitroprusside were used to stimulate Npr2 or soluble guanylate cyclase which is endogenously expressed in HEK293 cells, respectively. The Npr2-NppC counter screen was employed to search for agents that minimally effected this agonist-receptor interaction. The Npr2-NppC system was used because the side effects of most drugs occur on related receptors. Npr1 and Npr2 are the most related receptors in sequence and function and there are no additional active receptor subtypes in this family of receptors. The procedure is described in detail below.
Counter-screens were performed with HEK293-hNpr2-cGMP-sensor and HEK293-cGMP-sensor cells. These cells were stimulated with 1 nM NppC or 50 μM sodium nitroprusside, respectively, but otherwise the assay was conducted as described for HEK-hNpr1-cGMP-sensor cells. Pre-agonist controls were the same for all three assays, but normalization of post-agonist data differed between assays. For HEK-hNpr1-cGMP-sensor cells, −100% activity in post-agonist data was defined as described for primary screening, while for HEK-hNpr2-cGMP-sensor and HEK-cGMP-sensor cells, the average signal of DMSO-treated wells with 2% GloSensor™ reagent and the respective agonist was defined as 0% and the average signal of wells without agonist as −100% activity and data were normalized accordingly. Compounds directly interacting with the pGloSensor™-40F reporter system in HEK293 cells stimulated with sodium nitroprusside were eliminated as false positives. Effects of compounds on HEK293 cells stimulated with NppC and stably expressing hNpr2 and pGS-40F were tested for receptor selectivity.

SMILES	IC50	Imax	Inhibition of Nppc-induced hNpr2 activity (in words)
COc1ccc(C2(C(=O)N3CCC4(CC3)c3nccn3-c3ccccc3CN4C)CC2)cc1 [JS-12, (1-(4-methoxyphenyl)cyclopropyl)(5-methyl-5,6-dihydrospiro[benzo[f]imidazo[1,2-a][1,4]diazepine-4,4′-piperidin]-1′-yl)methanone]	5.7 ± 1.1 µM	-96 ± 4%	–
Cc1cc(CNC(=O)c2ccc3c(c2)n(CC2CC2)c(=O)n3C2CCCCC2)on1 [JS-11, 1-cyclohexyl-3-(cyclopropylmethyl)-N-((3-methylisoxazol-5-yl)methyl)-2-oxo-2,3-dihydro-1H-benzo[d]imidazole-5-carboxamide]	5 ± 1.1 µM	-97 ± 4%	inhibited hNpr2 with similar potency to hNpr1; also recorded: antagonizes natriuretic peptide-induced activation
Cc1nn2c(c1-c1ccccc1OCc1ccccc1)N(C(=O)Cc1ccccn1)CCC2 [JS-9, 1-(3-(2-(benzyloxy)phenyl)-2-methyl-6,7-dihydropyrazolo[1,5-a]pyrimidin-4(5H)-yl)-2-(pyridin-2-yl)ethan-1-one]	20 ± 16 µM	-102 ± 16%	–
O=C(Cc1ccc(Cl)cc1)N1Cc2ccccc2CC2(CCCN2CC2CCNC2)C1 (stereo not shown) [JS-2, 2-(4-chlorophenyl)-1-(1′-(pyrrolidin-3-ylmethyl)-1,5-dihydrospiro[benzo[c]azepine-4,2′-pyrrolidin]-2(3H)-yl)ethan-1-one]	6.4 ± 1.1 µM	-88 ± 5%	–
O=C(NCc1cccnc1)c1cnc2[nH]nc(-c3ccccc3)c2n1 [JS-7, 3-phenyl-N-(pyridin-3-ylmethyl)-1H-pyrazolo[3,4-b]pyrazine-5-carboxamide]	16 ± 1.3 µM	-122 ± 11%	–
Cc1noc(C)c1-c1cc(-c2ccccc2Oc2ccccc2)cn2cncc12 [JS-5, 3,5-dimethyl-4-(6-(2-phenoxyphenyl)imidazo[1,5-a]pyridin-8-yl)isoxazole]	12 ± 1.1 µM	-97 ± 4%	inhibited hNpr2 with similar potency to hNpr1; also recorded: antagonizes natriuretic peptide-induced activation
Cc1nn2c(c1-c1ccccc1OCc1ccccc1)N(C(=O)Cc1ccc3c(c1)OCO3)CCC2 [JS-8, 2-(benzo[d][1,3]dioxol-5-yl)-1-(3-(2-(benzyloxy)phenyl)-2-methyl-6,7-dihydropyrazolo[1,5-a]pyrimidin-4(5H)-yl)ethan-1-one]	9.1 ± 1.4 µM	-127 ± 13%	inhibited hNpr2 with similar potency to hNpr1; also recorded: antagonizes natriuretic peptide-induced activation
CCC(CC)c1cc([C@H]2CN3CC[C@H]2C[C@@H]3CNS(=O)(=O)c2cccs2)nc(-c2ccncc2)n1 [JS-3, N-(((2R,4S,5R)-5-(6-(pentan-3-yl)-2-(pyridin-4-yl)pyrimidin-4-yl)quinuclidin-2-yl)methyl)thiophene-2-sulfonamide]	17 ± 20 µM	-126 ± 23%	–
N#Cc1ccccc1CN1CCCC(C(=O)NCc2ccccc2)CCNC(=O)CC1 (stereo not shown) [JS-13, N-benzyl-1-(2-cyanobenzyl)-4-oxo-1,5-diazacycloundecane-8-carboxamide]	5.9 ± 1.3 µM	-108 ± 8%	–
Cc1nn2c(c1-c1ccccc1Oc1ccccc1)N(C(=O)Cc1ccc3c(c1)OCO3)CCC2 [JS-10, 2-(benzo[d][1,3]dioxol-5-yl)-1-(2-methyl-3-(2-phenoxyphenyl)-6,7-dihydropyrazolo[1,5-a]pyrimidin-4(5H)-yl)ethan-1-one]	5.4 ± 1.4 µM	-86 ± 5%	–
Cl.O=C1Nc2ccccc2CN(CC2CCCCC2)C12CCNCC2 [JS-1, 4-(cyclohexylmethyl)-4,5-dihydrospiro[benzo[e][1,4]diazepine-3,4′-piperidin]-2(1H)-one hydrochloride]	7.2 ± 1.3 µM	-106 ± 8%	–
COc1ccccc1-c1n[nH]c2ncc(C(=O)NCc3cccnc3)nc12 [JS-6, 3-(2-methoxyphenyl)-N-(pyridin-3-ylmethyl)-1H-pyrazolo[3,4-b]pyrazine-5-carboxamide]	6.9 ± 1.1 µM	-102 ± 3%	–
CN(Cc1ccccc1)C(=O)c1cn2ccnc(-c3ccccc3)c2n1 [JS-14, N-benzyl-N-methyl-8-phenylimidazo[1,2-a]pyrazine-2-carboxamide]	20 ± 1.1 µM	-91 ± 8%	–
COc1cc(CN2CCC(C)(NC(C)=O)CC2)cc(-c2ccncc2)c1 [JS-4, N-(1-(3-methoxy-5-(pyridin-4-yl)benzyl)-4-methylpiperidin-4-yl)acetamide]	11 ± 1.2 µM	-100 ± 5%	–
